Among the data in patent US20230069963A1, “PYRAZOLO[1,5-A]PYRIMIDINE MACROCYCLIC COMPOUND” (priority 2018, published 2023) are EC50 values, retold here.

In this assay the test system is RSV ATCC VR-1540 (A2). Put plainly: microbe, parasite or virus in culture. It is filed as cell-based. As to conditions: human respiratory syncytial virus, HEp-2, 96 h; Hep2 cells, incubated for 4 days, CPE detected with XTT assay (absorbance 450 nm); read-out: EC50 (nmol/L) against RSV A2 strain.
In the case of `CC[C@H]1c2cc3nc(N4CC[C@H](N)C4)c(C)c(n3n2)N(C)CCCCCOc2ccccc2C(=O)N1C` [Example 233, (18S)-3-[(3S)-3-aminopyrrolidin-1-yl]-18-ethyl-4,5,17-trimethyl-5,6,7,8,9,10,17,18-octahydro-16H-19,1-(metheno)pyrimido[6,1-h][1,7,9,10,13]benzoxatetraazacyclohexadecin-16-one], the EC50 stood at 39.5 nmol/L.

With `Cc1c(N2CCC(N)C2)nc2cc3nn2c1NCCOCCOc1ccc(Cl)cc1C(=O)N1CCCCC31` [Example 299, (18aS)-13-[(3S)-3-aminopyrrolidin-1-yl]-2-chloro-12-methyl-6,7,10,11,19,20,21,22-octahydro-9H,18aH,24H-18,15-(metheno)pyrido[2,1-l]pyrimido[6,1-h][1,4,7,9,10,13]benzodioxatetraazacyclohexadecin-24-one], the EC50 is 9.69 nmol/L. Then `O=C1COc2ccc(F)cc2C(=O)N2CCCC[C@H]2c2cc3nc(C4CC4)cc(n3n2)CCCN1` [Example 121, (18aS)-13-cyclopropyl-2-fluoro-8,9,10,11,19,20,21,22-octahydro-18aH,24H-18,15-(metheno)pyrido[2,1-l]pyrimido[6,1-h][1,4,9,10,13]benzoxatemazacyclohexadecine-7,24(6H)-dione], with 11 nmol/L; and `Cc1nnc2n1CCN(C)c1cc(N3CC(N)C3)nc3cc(nn13)[C@@H]1CCCCN1C(=O)c1cc(Cl)ccc1OC2` [Example 328, (20aS)-15-(3-aminoazetidin-1-yl)-2-chloro-9,13-dimethyl-12,13,21,22,23,24-hexahydro-6H, 11H,20aH,26H-20,17-(metheno)pyrido[2,1-l]pyrimido[6,1-h][1,2,4]triazolo[3,4-c][1,4,7,9,10,13]benzoxapentaazacyclohexadecin-26-one], with 9.48 nmol/L. Take `CC[C@H]1c2cc3nc(OC)c(C)c(n3n2)N(C)CCCCNc2ccc(C)cc2C(=O)N1C` [Example 222a, (17S)-17-ethyl-3-methoxy-4,5,13,16-tetramethyl-5,6,7,8,9,10,16,17-octahydro-15H-18,1-(metheno)pyrimido[6,1-g][1,6,8,9,12]benzopentaazacyclopentadecin-15-one]: the EC50 was 7.17 nmol/L. Then `CN1CCNC(=O)COc2ccc(F)cc2C(=O)N2CCCC[C@H]2c2cc3nc(CN)cc1n3n2` [Example 25, (18aS)-13-(aminomethyl)-2-fluoro-11-methyl-8,9,10,11,19,20,21,22-octahydro-18aH,24H-18,15-(metheno)pyrido[2,1-l]pyrimido[6,1-h][1,4,7,9,10,13]benzoxapentaazacyclohexadecine-7,24(6H)-dione], with approximately 14 nmol/L. For `Cc1c(N2CC(N)C2)nc2cc3nn2c1N(C)CCNC(=O)COc1ccc(F)cc1C(=O)N1CCCC[C@@H]31` [Example 61, (18aS)-13-(3-aminoazetidin-1-yl)-2-fluoro-11,12-dimethyl-8,9,10,11,19,20,21,22-octahydro-18aH,24H-18,15-(metheno)pyrido[2,1-l]pyrimido[6,1-h][1,4,7,9,10,13]benzoxapentaazacyclohexadecine-7,24(6H)-dione], the EC50 stood at 1.77 nmol/L. For the molecule `CN1CCNC(=O)COc2ccc(C3CC3)cc2C(=O)N2CCCC[C@H]2c2cc3nc(C4CC4)cc1n3n2` [Example 99, (18aS)-2,13-dicyclopropyl-11-methyl-8,9,10,11,19,20,21,22-octahydro-18aH,24H-18,15-(metheno)pyrido[2,1-l]pyrimido[6,1-h][1,4,7,9,10,13]benzoxapentaazacyclohexadecine-7,24(6H)-dione], the EC50 came out at 0.571 nmol/L. On to `CN1CCOc2ccc(Cl)cc2C(=O)N2CCCC[C@H]2c2cc3nc(N4CC(N)C4)cc(n3n2)N(C)CC1` [Example 151, (18aS)-13-(3-aminoazetidin-1-yl)-2-chloro-8,11-dimethyl-6,7,8,9,10,11,19,20,21,22-decahydro-18aH,24H-18,15-(metheno)pyrido[2,1-l]pyrimido[6,1-h][1,4,7,9,10,13]benzoxapentaazacyclohexadecin-24-one], for which the EC50 came out at 17 nmol/L.
